Blank lines part the entries; values can stand above or below the molecule they belong to. The source made the active and inactive calls. No cut-off for these calls is given here.
Columns and labels:
[1] = biological target: T1, Poly [ADP-ribose] polymerase 1 (Homo sapiens, UniProt P09874); experiment: Inhibition of PARP-1 (unknown origin) using Femto-ECL as substrate preincubated for 2.7 hrs followed by substrate addition by chemiluminescence assay
20S proteasome = experiment: Inhibition of 20S proteasome (unknown origin) using […] as substrate; format: protein-complex assay, Homo sapiens
BT-549 [2] = experiment: Cytotoxicity against human BT-549 cells assessed as inhibition of cell growth incubated for 72 hrs by MTT assay; format: functional, cell-based; conditions: BT-549, 72 h
MCF7 = experiment: Cytotoxicity against human MCF7 cells assessed as inhibition of cell growth incubated for 72 hrs by MTT assay; format: functional, cell-based; conditions: MCF7, 72 h
MDA-MB-231 = experiment: Cytotoxicity against human MDA-MB-231 cells assessed as inhibition of cell growth incubated for 72 hrs by MTT assay; format: functional, cell-based; conditions: MDA-MB-231, 72 h
[3] = biological target: T1, Poly [ADP-ribose] polymerase 1; experiment: Inhibition of PARP-1 in human BT-549 cells assessed as downregulation of FANCD2 mRNA expression incubated for 48 hrs by RT-qPCR analysis; format: cell-based
[4] = biological target: T1, Poly [ADP-ribose] polymerase 1; experiment: Inhibition of PARP-1 in human BT-549 cells assessed as downregulation of BRCA1 mRNA expression incubated for 48 hrs by RT-qPCR analysis; format: cell-based
[5] = biological target: T1, Poly [ADP-ribose] polymerase 1; experiment: Inhibition of PARP-1 in human BT-549 cells assessed as downregulation of BRCA2 mRNA expression incubated for 48 hrs by RT-qPCR analysis; format: cell-based
[6] = biological target: T1, Poly [ADP-ribose] polymerase 1; experiment: Inhibition of PARP-1 in human BT-549 cells assessed as downregulation of RAD51 mRNA expression incubated for 48 hrs by RT-qPCR analysis; format: cell-based
BT-549 [7] = experiment: Induction of DNA damage in human BT-549 cells assessed as upregulation of gamma-H2AX level at 0.05 uM incubated for 48 hrs by immunoblotting analysis; format: functional, cell-based
BT-549 [8] = experiment: Induction of DNA damage in human BT-549 cells assessed as upregulation of gamma-H2AX level at 0.5 uM incubated for 48 hrs by immunoblotting analysis; format: functional, cell-based
[9] = biological target: T1, Poly [ADP-ribose] polymerase 1; experiment: Inhibition of PARP-1 in human BT-549 cells assessed as downregulation of P-ATM expression at 0.05 uM incubated for 48 hrs by immunoblotting analysis; format: cell-based
[10] = biological target: T1, Poly [ADP-ribose] polymerase 1; experiment: Inhibition of PARP-1 in human BT-549 cells assessed as downregulation of BRCA1 expression at 0.05 uM incubated for 48 hrs by immunoblotting analysis; format: cell-based
[11] = biological target: T1, Poly [ADP-ribose] polymerase 1; experiment: Inhibition of PARP-1 in human BT-549 cells assessed as downregulation of RAD51 expression at 0.05 uM incubated for 48 hrs by immunoblotting analysis; format: cell-based
[12] = biological target: T1, Poly [ADP-ribose] polymerase 1; experiment: Inhibition of PARP-1 in human BT-549 cells assessed as downregulation of P-ATM expression at 0.5 uM incubated for 48 hrs by immunoblotting analysis; format: cell-based
[13] = biological target: T1, Poly [ADP-ribose] polymerase 1; experiment: Inhibition of PARP-1 in human BT-549 cells assessed as downregulation of BRCA1 expression at 0.5 uM incubated for 48 hrs by immunoblotting analysis; format: cell-based
[14] = biological target: T1, Poly [ADP-ribose] polymerase 1; experiment: Inhibition of PARP-1 in human BT-549 cells assessed as downregulation of RAD51 expression at 0.5 uM incubated for 48 hrs by immunoblotting analysis; format: cell-based
BT-549 [15] = experiment: Induction of DNA damage in human BT-549 cells assessed as increase in gamma-H2AX localization in nucleus at 0.125 uM incubated for 48 hrs by fluorescence confocal microscopic analysis; format: functional, cell-based
BT-549 [16] = experiment: Induction of DNA damage in human BT-549 cells assessed as decrease in BRCA1 localization in nucleus at 0.125 uM incubated for 48 hrs by fluorescence confocal microscopic analysis; format: functional, cell-based
BT-549 [17] = experiment: Induction of DNA damage in human BT-549 cells assessed as decrease in ubiquitin localization in nucleus at 0.125 uM incubated for 48 hrs by fluorescence confocal microscopic analysis; format: functional, cell-based
BT-549 [18] = experiment: Induction of DNA damage in human BT-549 cells assessed as increase in polyubiquitination at 0.125 uM incubated for 48 hrs by fluorescence confocal microscopic analysis; format: functional, cell-based
BT-549 [19] = experiment: Induction of DNA damage in human BT-549 cells assessed as decrease in polyubiquitination in nucleus at 0.125 uM incubated for 48 hrs by fluorescence confocal microscopic analysis; format: functional, cell-based
BT-549 [20] = experiment: Induction in cell cycle arrest in human BT-549 cells assessed as downregulation of Cyclin A2 expression at 0.05 uM incubated for 48 hrs by Western blotting analysis; format: functional, cell-based
BT-549 [21] = experiment: Induction in cell cycle arrest in human BT-549 cells assessed as downregulation of Cyclin A2 expression at 0.5 uM incubated for 48 hrs by Western blotting analysis; format: functional, cell-based
BT-549 [22] = experiment: Induction in cell cycle arrest in human BT-549 cells assessed as downregulation of CDK1 expression at 0.05 uM incubated for 48 hrs by Western blotting analysis; format: functional, cell-based
BT-549 [23] = experiment: Induction in cell cycle arrest in human BT-549 cells assessed as downregulation of CDK1 expression at 0.5 uM incubated for 48 hrs by Western blotting analysis; format: functional, cell-based
BT-549 [24] = experiment: Induction in cell cycle arrest in human BT-549 cells assessed as upregulation of p21 expression at 0.05 uM incubated for 48 hrs by Western blotting analysis; format: functional, cell-based
BT-549 [25] = experiment: Induction in cell cycle arrest in human BT-549 cells assessed as upregulation of p21 expression at 0.5 uM incubated for 48 hrs by Western blotting analysis; format: functional, cell-based
BT-549 [26] = experiment: Induction of apoptosis in human BT-549 cells assessed as upregulation of cleaved caspase-3 expression incubated for 48 hrs by Western blotting analysis; format: functional, cell-based
BT-549 [27] = experiment: Induction of apoptosis in human BT-549 cells assessed as upregulation of cleaved PARP expression incubated for 48 hrs by Western blotting analysis; format: functional, cell-based
BT-549 [28] = experiment: Induction of apoptosis in human BT-549 cells assessed as increase in early apoptotic cells incubated for 48 hrs by Annexin V-FITC/PI staining based flow cytometric analysis; format: functional, cell-based
BT-549 [29] = experiment: Induction of apoptosis in human BT-549 cells assessed as increase in late apoptotic cells incubated for 48 hrs by Annexin V-FITC/PI staining based flow cytometric analysis; format: functional, cell-based
BT-549 [30] = experiment: Inhibition of colony formation in human BT-549 cells assessed as reduction in colony number incubated for 14 days by crystal violet staining based analysis; format: functional, cell-based; conditions: time 14.0 day
BT-549 [31] = experiment: Inhibition of colony formation in human BT-549 cells assessed as reduction in colony size incubated for 14 days by crystal violet staining based analysis; format: functional, cell-based; conditions: time 14.0 day

T1 sequence (P09874 whole entry): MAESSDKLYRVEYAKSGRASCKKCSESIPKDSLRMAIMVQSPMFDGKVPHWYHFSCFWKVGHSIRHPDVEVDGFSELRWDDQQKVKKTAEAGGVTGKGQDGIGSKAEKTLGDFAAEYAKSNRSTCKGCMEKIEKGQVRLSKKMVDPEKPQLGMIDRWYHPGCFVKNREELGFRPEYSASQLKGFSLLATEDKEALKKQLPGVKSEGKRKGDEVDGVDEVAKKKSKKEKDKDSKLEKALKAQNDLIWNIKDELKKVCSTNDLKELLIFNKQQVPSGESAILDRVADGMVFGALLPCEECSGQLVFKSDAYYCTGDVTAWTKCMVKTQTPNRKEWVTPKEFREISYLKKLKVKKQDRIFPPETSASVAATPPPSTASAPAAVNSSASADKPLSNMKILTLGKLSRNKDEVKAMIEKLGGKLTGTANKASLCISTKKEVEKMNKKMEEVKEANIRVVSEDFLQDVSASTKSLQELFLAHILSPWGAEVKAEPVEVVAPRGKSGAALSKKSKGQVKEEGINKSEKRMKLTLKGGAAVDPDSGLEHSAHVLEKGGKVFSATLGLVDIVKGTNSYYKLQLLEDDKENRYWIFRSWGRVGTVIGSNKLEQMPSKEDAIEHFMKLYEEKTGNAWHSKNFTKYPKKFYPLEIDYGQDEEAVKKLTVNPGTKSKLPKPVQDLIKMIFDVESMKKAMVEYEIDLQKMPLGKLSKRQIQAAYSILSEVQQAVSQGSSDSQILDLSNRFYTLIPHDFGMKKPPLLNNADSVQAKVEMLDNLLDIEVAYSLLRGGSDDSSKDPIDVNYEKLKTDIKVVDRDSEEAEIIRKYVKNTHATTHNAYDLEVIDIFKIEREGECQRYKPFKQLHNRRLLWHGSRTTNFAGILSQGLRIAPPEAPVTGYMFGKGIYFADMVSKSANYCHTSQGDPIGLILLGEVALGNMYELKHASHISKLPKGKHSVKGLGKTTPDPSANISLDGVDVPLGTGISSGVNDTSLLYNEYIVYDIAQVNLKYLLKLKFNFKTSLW

SMILES: CSCC[C@H](NC(=O)c1cc(Cc2n[nH]c(=O)c3ccccc23)ccc1F)C(=O)N[C@@H](CC(C)C)B1O[C@@H]2C[C@@H]3C[C@@H](C3(C)C)[C@]2(C)O1
IC50 [1]: 0.102 µM
IC50 (20S proteasome): 0.0823 µM
IC50 (BT-549 [2]): 0.0124 µM
IC50 (MCF7): 0.0601 µM
IC50 (MDA-MB-231): 0.0676 µM
inhibition [3]: Dose-Dependent Effect
inhibition [4]: Dose-Dependent Effect
inhibition [5]: Dose-Dependent Effect
inhibition [6]: Dose-Dependent Effect
Activity (BT-549 [7]): Active
Activity (BT-549 [8]): Active
inhibition [9]: Active
inhibition [10]: Active
inhibition [11]: Active
inhibition [12]: Active
inhibition [13]: Active
inhibition [14]: Active
Activity (BT-549 [15]): Active
Activity (BT-549 [16]): Active
Activity (BT-549 [17]): Active
Activity (BT-549 [18]): Active
Activity (BT-549 [19]): Active
Activity (BT-549 [20]): Active
Activity (BT-549 [21]): Active
Activity (BT-549 [22]): Active
Activity (BT-549 [23]): Active
Activity (BT-549 [24]): Active
Activity (BT-549 [25]): Active
Activity (BT-549 [26]): Dose-Dependent Effect
Activity (BT-549 [27]): Dose-Dependent Effect
Activity (BT-549 [28]): Dose-Dependent Effect
Activity (BT-549 [29]): Dose-Dependent Effect
inhibition (BT-549 [30]): Dose-Dependent Effect
inhibition (BT-549 [31]): Dose-Dependent Effect

SMILES: COC[C@H](NC(=O)c1cc(Cc2n[nH]c(=O)c(C)c2C)ccc1F)C(=O)N[C@@H](CC(C)C)B1O[C@@H]2C[C@@H]3C[C@@H](C3(C)C)[C@]2(C)O1
IC50 [1]: > 1 µM

SMILES: Cc1c(Cc2ccc(F)c(C(=O)NCC(=O)N[C@@H](CC(C)C)B3O[C@@H]4C[C@@H]5C[C@@H](C5(C)C)[C@]4(C)O3)c2)n[nH]c(=O)c1C
IC50 [1]: 0.173 µM
IC50 (20S proteasome): 0.0395 µM

SMILES: COC[C@H](NC(=O)c1cc(Cc2n[nH]c(=O)c3ccccc23)ccc1F)C(=O)N[C@@H](CC(C)C)B1O[C@@H]2C[C@@H]3C[C@@H](C3(C)C)[C@]2(C)O1
IC50 [1]: 0.247 µM
IC50 (20S proteasome): 0.0214 µM
IC50 (BT-549 [2]): 0.109 µM
IC50 (MCF7): 0.0408 µM
IC50 (MDA-MB-231): 0.101 µM

SMILES: CCC[C@H](NC(=O)c1cc(Cc2n[nH]c(=O)c3ccccc23)ccc1F)C(=O)N[C@@H](CC(C)C)B1O[C@@H]2C[C@@H]3C[C@@H](C3(C)C)[C@]2(C)O1
IC50 [1]: 0.203 µM
IC50 (20S proteasome): 0.103 µM
IC50 (BT-549 [2]): 0.605 µM
IC50 (MCF7): 0.0879 µM
IC50 (MDA-MB-231): 0.338 µM

SMILES: CC(C)C[C@H](NC(=O)[C@H](Cc1c[nH]c2ccccc12)NC(=O)c1cc(Cc2n[nH]c(=O)c3ccccc23)ccc1F)C(=O)[C@@]1(C)CO1
IC50 (20S proteasome): 1.06 µM

SMILES: CC(C)C[C@H](NC(=O)[C@H](C)NC(=O)c1cc(Cc2n[nH]c(=O)c3ccccc23)ccc1F)B1O[C@@H]2C[C@@H]3C[C@@H](C3(C)C)[C@]2(C)O1
IC50 [1]: 0.118 µM
IC50 (20S proteasome): 0.132 µM
IC50 (BT-549 [2]): 0.041 µM
IC50 (MCF7): 0.0208 µM
IC50 (MDA-MB-231): 0.037 µM

SMILES: CC(C)C[C@H](NC(=O)[C@H](CCc1ccccc1)NC(=O)c1cc(Cc2n[nH]c(=O)c3ccccc23)ccc1F)B1O[C@@H]2C[C@@H]3C[C@@H](C3(C)C)[C@]2(C)O1
IC50 [1]: 0.1 µM
IC50 (20S proteasome): 0.0345 µM
IC50 (BT-549 [2]): 0.294 µM
IC50 (MCF7): 0.0146 µM
IC50 (MDA-MB-231): 0.0295 µM

The next lines start with results.

IC50 [1]: 0.0041 µM
IC50 (20S proteasome): 0.386 µM
SMILES: CC(C)C[C@H](NC(=O)CNC(=O)c1cc(Cc2n[nH]c(=O)c3ccccc23)ccc1F)B(O)O

IC50 [1]: 0.098 µM
IC50 (20S proteasome): 0.0247 µM
SMILES: CC(C)C[C@H](NC(=O)[C@H](Cc1ccccc1)NC(=O)c1cc(Cc2n[nH]c(=O)c3ccccc23)ccc1F)B1O[C@@H]2C[C@@H]3C[C@@H](C3(C)C)[C@]2(C)O1
IC50 (BT-549 [2]): 0.0849 µM
IC50 (MCF7): 0.0586 µM
IC50 (MDA-MB-231): 0.0636 µM

IC50 [1]: 0.028 µM
IC50 (20S proteasome): 0.0426 µM
SMILES: CC(C)C[C@H](NC(=O)[C@H](Cc1c[nH]c2ccccc12)NC(=O)c1cc(Cc2n[nH]c(=O)c3ccccc23)ccc1F)B1O[C@@H]2C[C@@H]3C[C@@H](C3(C)C)[C@]2(C)O1
IC50 (BT-549 [2]): 0.216 µM
IC50 (MCF7): 0.0451 µM
IC50 (MDA-MB-231): 0.297 µM

Reference: ChEMBL document CHEMBL5528008, “Design and synthesis of the first PARP-1 and proteasome dual inhibitors to treat breast cancer” (Eur J Med Chem, 2024)
